Converted amounts (≈) assume the structure as drawn. Structures can show the parent of a compound that is named as a salt.
Assays:
S. aureus (MRSA) = test: MIC, broth microdilution (CLSI); type: cell-based, Staphylococcus aureus; conditions: Staphylococcus aureus, MRSA; compound alone
Experimental: (§1) Minimum Inhibitory Concentrations (MICs) were determined by the broth microdilution method in accordance with the Clinical and Laboratory Standards Institute (CLSI) guidelines. Clinical Laboratory Standards Institute: Methods for Dilution Antimicrobial Susceptability Tests for Bacteria That Grow Aerobically (8th Ed. (2009)) M07-A8. In brief, organism suspensions were adjusted to a 0.5 McFarland standard and further diluted to yield a final inoculum between 3×10^5 and 7×10^5 colony-forming units (CFU)/mL. Bacterial inocula were made in sterile, cation adjusted Mueller-Hinton Broth (Beckton Dickinson) for either Escherichia coli, Klebsiella pneumoniae, or Pseudomonas aeruginosa. Haemophilus influenzae bacterial inocula were made in sterile, cation adjusted Mueller-Hinton Broth (Beckton Dickinson) containing 0.5% yeast extract (Beckton Dickinson) plus 15 μg/ml Bovine Hematin (Sigma) and 15 μg/ml β-nicotinamide adenine dinucleotide (Sigma). Bacterial inocula were made in sterile, cation adjusted Mueller-Hinton Broth (Beckton Dickinson) for Staphylococcus aureus or sterile, cation adjusted Mueller-Hinton Broth containing 2.5% lysed horse blood (Hema Resource & Supply Inc.) for Streptococcus pneumoniae and Streptococcus pyogenes. An inoculum volume of 100 uL was added to wells (using a Tecan EVO robot) containing 2 uL of DMSO containing 2-fold serial dilutions of drug. […] All inoculated microdilution trays were incubated in ambient air at 35° C. for 18-24 hours. Following incubation, the lowest concentration of the drug that prevented visible growth as read at OD600 nm was recorded as the MIC. Performance of the assay was monitored by the use of laboratory quality-control strains and commercially available control compounds with defined MIC spectrums, in accordance with CLSI guidelines.

S. aureus (MSSA) = test: MIC, broth microdilution (CLSI); type: cell-based, Staphylococcus aureus; conditions: Staphylococcus aureus, MSSA; compound alone
Experimental: as §1

Streptococcus pneumoniae = test: MIC, broth microdilution (CLSI); type: cell-based; conditions: Streptococcus pneumoniae; compound alone; read-out: MIC S. pneumon.
Experimental: as §1

Streptococcus pyogenes = test: MIC, broth microdilution (CLSI); type: cell-based; conditions: Streptococcus pyogenes; compound alone; read-out: MIC S. pyogenes
Experimental: as §1

Klebsiella pneumoniae = test: MIC, broth microdilution (CLSI); type: cell-based; conditions: Klebsiella pneumoniae; compound alone; read-out: MIC K. pneumon.
Experimental: as §1

Pseudomonas aeruginosa = test: MIC, broth microdilution (CLSI); type: cell-based; conditions: Pseudomonas aeruginosa; compound alone; read-out: MIC P. aeruginosa
Experimental: as §1

Escherichia coli = test: MIC, broth microdilution (CLSI); type: cell-based; conditions: Escherichia coli; compound alone
Experimental: as §1

[1] = test system: Pseudomonas aeruginosa AmpC (first AmpC column); test: MIC alone against β-lactamase producing strain; type: cell-based; conditions: substance alone, column 2
Experimental: as §1

[2] = test system: Klebsiella pneumoniae KPC2; test: MIC alone against β-lactamase producing strain; type: cell-based; conditions: Klebsiella pneumoniae, KPC2; substance alone
Experimental: as §1

[3] = test system: Pseudomonas aeruginosa AmpC (second AmpC column); test: MIC alone against β-lactamase producing strain; type: cell-based; conditions: substance alone, column 4
Experimental: as §1

[4] = test system: Pseudomonas aeruginosa PER-1, OXA-10; test: MIC alone against β-lactamase producing strain; type: cell-based; conditions: Pseudomonas aeruginosa; substance alone
Experimental: as §1

Haemophilus influenzae = test: MIC, broth microdilution (CLSI); type: cell-based; conditions: Haemophilus influenzae; compound alone; read-out: MIC H. influenzae
Experimental: as §1

[5] = test system: Klebsiella pneumoniae KPC2; test: Synergy with β-lactams (MIC of β-lactam at fixed inhibitor concentration); type: cell-based; conditions: MIC of ceftazidime + inhibitor at fixed 4 ug/ml
Experimental: Synergy with β-lactams was assessed against several organisms producing a variety of β-lactamases belonging to different classes. Bush & Jacoby, Updated Functional Classification of β-Lactamases, Antimicrobial Agents and Chemotherapy, 54:969-76 (2010). In the assays, growth inhibitory activity (MIC) was measured using either two-fold dilutions of the partner β-lactam at a fixed concentration of compounds of formula (I). Compounds were prepared in DMSO, and MIC determinations using the compound of formula (I)/β-lactam combinations were done according to the CLSI guidelines. Clinical Laboratory Standards Institute: Methods for Dilution Antimicrobial Susceptability Tests for Bacteria That Grow Aerobically (8th Ed. (2009)) M07-A8. Synergy was defined as a four-fold or more reduction in the MIC of the β-lactam in the presence of the compound of formula (I), compared to the β-lactam alone.

| MIC (S. aureus (MRSA)) [µg/mL] | MIC (S. aureus (MSSA)) [µg/mL] | MIC (Streptococcus pneumoniae) [µg/mL] | MIC (Streptococcus pyogenes) [µg/mL] | MIC (Klebsiella pneumoniae) [µg/mL] | MIC (Pseudomonas aeruginosa) [µg/mL] | MIC (Escherichia coli) [µg/mL] | MIC [1] [µg/mL] | MIC [2] [µg/mL] | MIC [3] [µg/mL] | MIC [4] [µg/mL] | MIC (Haemophilus influenzae) [µg/mL] | MIC Klebsiella pneumoniae KPC2 [5] [µM] | Structure (SMILES) |
| --- | --- | --- | --- | --- | --- | --- | --- | --- | --- | --- | --- | --- | --- |
| > 200 | 25 | 6.25 | 3.13 | 50 | 200 | 50 | 64 | 8 | > 64 | > 64 |  |  | CC1=C[C@@H](C(N)=O)N2C[C@@H]1N(OS(=O)(=O)O)C2=O.[Na] [Example 1, (2S,5R)-2-carbamoyl-4-methyl-7-oxo-1,6-diazabicyclo[3.2.1]oct-3-en-6-yl hydrogen sulfate sodium salt] |
| 100 | 100 | 25 | 3.13 | 100 | > 200 | 100 | > 64 | 64 | > 64 | > 64 | 12.5 |  | CC1=C[C@@H](C#N)N2C[C@@H]1N(OS(=O)(=O)O)C2=O.[Na] [Example 2, (2S,5R)-2-cyano-4-methyl-7-oxo-1,6-diazabicyclo[3.2.1]oct-3-en-6-yl hydrogen sulfate sodium salt] |
| > 200 |  | 25 | 25 | 50 | > 200 | 100 | > 64 | 64 | > 64 | > 64 | 100 |  | COC[C@@H]1C=C(C(N)=O)[C@@H]2CN1C(=O)N2OS(=O)(=O)O [Example 12, (2S,5R)-4-carbamoyl-2-(methoxymethyl)-7-oxo-1,6-diazabicyclo[3.2.1]oct-3-en-6-yl hydrogen sulfate, monosodium salt] |
| > 200 | > 200 | 100 | 50 | > 200 | > 200 | > 200 |  |  |  |  | 100 |  | CC(C)C1=C[C@@H](C#N)N2C[C@@H]1N(OS(=O)(=O)O)C2=O.[Na] [Example 5, (2S,5R)-2-cyano-4-isopropyl-7-oxo-1,6-diazabicyclo[3.2.1]oct-3-en-6-yl hydrogen sulfate sodium salt] |
| > 200 | 200 | 25 | 25 | > 200 | 25 | > 200 | 16 | 0.25 | 16 | 16 | > 200 |  | CC1=C[C@@H](C(=O)NCCN)N2C[C@@H]1N(OS(=O)(=O)O)C2=O [Example 6, (2S,5R)-2-(2-aminoethylcarbamoyl)-4-methyl-7-oxo-1,6-diazabicyclo[3.2.1]oct-3-en-6-yl hydrogen sulfate] |
| > 200 | > 200 | > 200 | > 200 | > 200 | > 200 | > 200 |  |  |  |  | > 200 |  | C=C(C)C1=C[C@@H](COC)N2C[C@@H]1N(OS(=O)(=O)O)C2=O.[Na] [Example 7, (2S,5R)-2-(methoxymethyl)-7-oxo-4-(prop-1-en-2-yl)-1,6-diazabicyclo[3.2.1]oct-3-en-6-yl hydrogen sulfate sodium salt] |
| > 200 |  | 200 | 50 | > 200 | > 200 | > 200 | > 64 | > 64 | > 64 | > 64 | > 200 |  | CC(C)C1=C[C@@H](C(N)=O)N2C[C@@H]1N(OS(=O)(=O)O)C2=O.[Na] [Example 4, (2S,5R)-2-carbamoyl-4-isopropyl-7-oxo-1,6-diazabicyclo[3.2.1]oct-3-en-6-yl hydrogen sulfate sodium salt] |
| > 200 | 100 | 50 | 50 | 100 | > 200 | 100 | > 16 | 8 | > 16 | > 16 | 50 |  | CC1=C[C@@H](CO)N2C[C@@H]1N(OS(=O)(=O)[O-])C2=O.[Na+] [Example 16, (2S,5R)-2-(hydroxymethyl)-4-methyl-7-oxo-1,6-diazabicyclo[3.2.1]oct-3-en-6-yl hydrogen sulfate Sodium Salt] |

The remaining lines, values behind:

| Structure (SMILES) | MIC (S. aureus (MRSA)) [µg/mL] | MIC (S. aureus (MSSA)) [µg/mL] | MIC (Streptococcus pneumoniae) [µg/mL] | MIC (Streptococcus pyogenes) [µg/mL] | MIC (Klebsiella pneumoniae) [µg/mL] | MIC (Pseudomonas aeruginosa) [µg/mL] | MIC (Escherichia coli) [µg/mL] | MIC [1] [µg/mL] | MIC [2] [µg/mL] | MIC [3] [µg/mL] | MIC [4] [µg/mL] | MIC (Haemophilus influenzae) [µg/mL] | MIC Klebsiella pneumoniae KPC2 [5] [µM] |
| --- | --- | --- | --- | --- | --- | --- | --- | --- | --- | --- | --- | --- | --- |
| CC1=C[C@@H](C(=O)NCc2cc(=O)c(O)c[nH]2)N2C[C@@H]1N(OS(=O)(=O)O)C2=O [Example 8, (2S,5R)-2-((5-hydroxy-4-oxo-1,4-dihydropyridin-2-yl)methylcarbamoyl)-4-methyl-7-oxo-1,6-diazabicyclo[3.2.1]oct-3-en-6-yl hydrogen sulfate sodium salt] |  |  |  |  |  |  |  | > 16 | > 16 | > 16 | > 16 |  |  |
| CC(C)(O/N=C(\C(=O)N[C@@H]1C(=O)N2C(C(=O)[O-])=C(C[n+]3ccccc3)CS[C@H]12)c1csc(N)n1)C(=O)O [Ceftazidime, ceftazidime, reference compound] |  |  |  |  |  |  |  | 128 (≈ 234 µM) | 256 (≈ 468 µM) | 32 (≈ 58.5 µM) | 256 (≈ 468 µM) |  |  |
| CC(C)(C)OC(=O)N1CCC(NC(=O)[C@@H]2C=C[C@@H]3CN2C(=O)N3OS(=O)(=O)O)CC1 [Example 14, (2S,5R)-2-(1-(tert-butoxycarbonyl)piperidin-4-ylcarbamoyl)-7-oxo-1,6-diazabicyclo[3.2.1]oct-3-en-6-yl sulfate sodium salt] | > 200 | 100 | 100 | 100 | > 200 | > 200 | > 200 |  |  |  |  | 12.5 |  |
| COCC1=C[C@@H](COC)N2C[C@@H]1N(OS(=O)(=O)[O-])C2=O.[Na+] [Example 13, (2S,5R)-2,4-bis(methoxymethyl)-7-oxo-1,6-diazabicyclo[3.2.1]oct-3-en-6-yl sulfate Sodium salt] | > 200 | > 200 | 50 | 100 | > 200 | > 200 | > 200 | > 16 | > 16 | > 16 | > 16 | 200 |  |
| CC1=C[C@@H](C(=O)NC2CCNCC2)N2C[C@@H]1N(OS(=O)(=O)O)C2=O [Example 3, (2S,5R)-4-methyl-7-oxo-2-(piperidinium-4-ylcarbamoyl)-1,6-diazabicyclo[3.2.1]oct-3-en-6-yl sulfate] | > 200 | > 200 | 50 | 50 | > 200 | > 200 | > 200 |  |  |  |  | 3.13 |  |
| CC(=O)NCCC1=C[C@@H](C(N)=O)N2C[C@@H]1N(OS(=O)(=O)[O-])C2=O.[Na+] [Ex. 25, (2S,5R)-4-(2-acetamidoethyl)-2-carbamol-7-oxo-1,6-diazabicyclo[3.2.1]oct-3-en-6-yl sulfate sodium salt] |  |  |  |  |  |  |  |  |  |  |  |  | >8 |
| COCC1=C[C@@H](C(N)=O)N2C[C@@H]1N(OS(=O)(=O)[O-])C2=O.[Na+] [Example 9, (2S,5R)-2-carbamoyl-4-(methoxymethyl)-7-oxo-1,6-diazabicyclo[3.2.1]oct-3-en-6-yl hydrogen sulfate sodium salt] |  |  |  |  |  |  |  | > 16 | > 16 | > 16 | > 16 |  |  |
